Reference: patent US20080009418A1, “Selective Inhibitors” (Alchemia LTD., priority 2004, published 2008)

What was measured:
Human δ-opioid (DOP) = molecular target: T1, Human δ-opioid (DOP) (Homo sapiens, UniProt P41143); assay: Radioligand binding, human δ-opioid (DOP) membranes, FlashPlate, [3H]-Bremazocine; conditions: compound at 10 μM, [3H]-Bremazocine; for A1: inhibition of radioligand binding: FlashPlate
T1 construct: purchased Perkin Elmer Biosignal
In short: (§1)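 Cloned human receptor membranes were coated onto FlashPlate wells and incubated with radioligand and compound (added from a 0.5 mM DMSO daughter plate) for 1 hour at room temperature in the dark. Scintillation counting gave percent inhibition, with DMSO defining total and reference ligand defining non-specific binding.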

Human κ-Opioid (KOP) = molecular target: T2, Human κ-Opioid (KOP) (Homo sapiens, UniProt P41145); assay: Radioligand binding, human κ-opioid (KOP) membranes, filtration, [3H]-Diprenorphine; conditions: compound at 10 μM, [3H]-Diprenorphine; for A2: inhibition of radioligand binding: filtration
T2 construct: purchased Perkin Elmer Biosignal
In short: (§2)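 Membranes from cloned human receptors were incubated with compound and radioligand for 1 hour at room temperature. Bound ligand was collected on 0.3% PEI-soaked filters, washed with cold 50 mM Tris-HCl pH 7.4, and counted by scintillation. Percent inhibition was computed against DMSO totals and reference-ligand nonspecific wells.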

Human Melanocortin (MC3) = molecular target: T3, Human Melanocortin (MC3) (Homo sapiens, UniProt P41968); assay: Radioligand binding, human melanocortin MC3 membranes, FlashPlate, [125I]-NDP-αMSH; conditions: compound at 10 μM, [125I]-NDP-αMSH; for A3: inhibition of radioligand binding: FlashPlate
T3 construct: purchased Perkin Elmer Biosignal
In short: as §1

Human Melanocortin (MC4) = molecular target: T4, Human Melanocortin (MC4) (Homo sapiens, UniProt P32245); assay: Radioligand binding, human melanocortin MC4 membranes, FlashPlate, [125I]-NDP-αMSH; conditions: compound at 10 μM, [125I]-NDP-αMSH; for A4: inhibition of radioligand binding: FlashPlate
T4 construct: purchased Perkin Elmer Biosignal
In short: as §1

Human melanocortin (MC5) = molecular target: T5, Human melanocortin (MC5) (Homo sapiens, UniProt P33032); assay: Radioligand binding, human melanocortin MC5 membranes, FlashPlate, [125I]-NDP-αMSH; conditions: compound at 10 μM, [125I]-NDP-αMSH; for A5: inhibition of radioligand binding: FlashPlate
T5 construct: purchased Perkin Elmer Biosignal
In short: as §1

[1] = molecular target: T6, Human melanin-concentrating hormone (MCH1) (Homo sapiens, UniProt Q99705); assay: Radioligand binding, human melanin-concentrating hormone MCH1 membranes, FlashPlate, [125I]-S36057; conditions: compound at 10 μM; for A6: inhibition of radioligand binding: [125I]-S36057, FlashPlate
T6 construct: purchased Perkin Elmer Biosignal
In short: as §1

Human μ-opioid (MOP) = molecular target: T7, Human μ-opioid (MOP) (Homo sapiens, UniProt P35372); assay: Radioligand binding, human μ-opioid (MOP) membranes, FlashPlate, [3H]-Naloxone; conditions: compound at 10 μM, [3H]-Naloxone; for A7: inhibition of radioligand binding: FlashPlate
T7 construct: purchased Perkin Elmer Biosignal
In short: as §1

Human neurokinin (NK1) = molecular target: T8, Human neurokinin (NK1) (Homo sapiens, UniProt P25103); assay: Radioligand binding, human neurokinin NK1 membranes, filtration, [125I]-Substance P; conditions: compound at 10 μM, [125I]-Substance P; for A8: inhibition of radioligand binding: filtration
T8 construct: purchased Perkin Elmer Biosignal
In short: as §2

[2] = molecular target: T9, Human neuropeptide Y (NPY-Y1) (Homo sapiens, UniProt P25929); assay: Radioligand binding, human neuropeptide Y NPY-Y1 membranes, FlashPlate, [125I]-PYY; conditions: compound at 10 μM, [125I]-PYY; for A9: inhibition of radioligand binding: FlashPlate
T9 construct: purchased Perkin Elmer Biosignal
T9 sequence (P25929 1-384): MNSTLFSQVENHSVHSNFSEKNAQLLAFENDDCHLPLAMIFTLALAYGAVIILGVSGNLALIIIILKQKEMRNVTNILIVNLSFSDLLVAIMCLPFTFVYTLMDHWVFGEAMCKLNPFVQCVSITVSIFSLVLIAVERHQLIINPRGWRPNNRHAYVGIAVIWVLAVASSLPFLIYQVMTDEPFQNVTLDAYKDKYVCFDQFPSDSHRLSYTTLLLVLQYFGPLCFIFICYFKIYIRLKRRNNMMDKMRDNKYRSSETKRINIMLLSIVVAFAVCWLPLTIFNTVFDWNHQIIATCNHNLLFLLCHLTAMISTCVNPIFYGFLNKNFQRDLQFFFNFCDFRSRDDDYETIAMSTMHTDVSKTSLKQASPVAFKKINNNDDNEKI
In short: as §1

Human opioid (ORL1) = molecular target: T10, Human opioid (ORL1) (Homo sapiens, UniProt P41146); assay: Radioligand binding, human opioid ORL1 membranes, FlashPlate, [125I]-Nociceptin; conditions: compound at 10 μM, [125I]-Nociceptin; for A10: inhibition of radioligand binding: FlashPlate
T10 construct: purchased Perkin Elmer Biosignal
In short: as §1

Mouse urotensin (mUR2) = molecular target: T11, Mouse urotensin (mUR2) (Mus musculus, UniProt Q8VIH9); assay: Radioligand binding, mouse urotensin mUR2 membranes, FlashPlate, [125I]-Urotensin II; conditions: compound at 10 μM, [125I]-Urotensin II; for A11: inhibition of radioligand binding: FlashPlate
T11 construct: purchased Perkin Elmer Biosignal
T11 sequence (Q8VIH9 1-385): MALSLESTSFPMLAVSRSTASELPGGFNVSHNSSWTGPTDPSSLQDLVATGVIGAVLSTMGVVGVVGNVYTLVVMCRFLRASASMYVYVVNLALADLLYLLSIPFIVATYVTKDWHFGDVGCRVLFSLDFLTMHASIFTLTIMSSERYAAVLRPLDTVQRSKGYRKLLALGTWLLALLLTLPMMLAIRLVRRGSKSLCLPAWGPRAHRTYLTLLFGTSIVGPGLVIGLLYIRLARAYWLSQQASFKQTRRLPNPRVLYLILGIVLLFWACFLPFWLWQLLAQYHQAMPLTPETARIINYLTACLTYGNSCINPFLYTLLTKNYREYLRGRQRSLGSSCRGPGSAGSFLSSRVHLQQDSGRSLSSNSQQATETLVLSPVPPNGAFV
In short: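 Cloned mouse urotensin (mUR2) receptor membranes from Perkin Elmer Biosignal were immobilized in FlashPlate microplates using a proprietary coating. Each well got 19.5 μl buffer, then 0.5 μl of DMSO, reference ligand, or compound. Adding 5 μl of [125I]-Urotensin II, diluted to 5× final concentration in binding buffer, started binding. Plates were sealed with TopSeal-A and incubated 1 hour at room temperature in the dark. Wells were counted for 30 seconds each on a TopCount after a 60-second delay, and percentage inhibition was calculated.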

T5 sequence (P33032 whole entry): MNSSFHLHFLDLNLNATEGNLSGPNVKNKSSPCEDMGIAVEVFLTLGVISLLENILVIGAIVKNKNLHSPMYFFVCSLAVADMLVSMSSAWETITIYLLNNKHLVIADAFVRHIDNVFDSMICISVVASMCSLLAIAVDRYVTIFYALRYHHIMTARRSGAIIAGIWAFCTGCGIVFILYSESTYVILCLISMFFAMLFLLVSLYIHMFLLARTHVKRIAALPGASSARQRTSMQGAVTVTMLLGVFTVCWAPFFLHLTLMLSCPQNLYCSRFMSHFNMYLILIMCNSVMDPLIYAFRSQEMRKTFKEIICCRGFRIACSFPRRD
T1 sequence (P41143 whole entry): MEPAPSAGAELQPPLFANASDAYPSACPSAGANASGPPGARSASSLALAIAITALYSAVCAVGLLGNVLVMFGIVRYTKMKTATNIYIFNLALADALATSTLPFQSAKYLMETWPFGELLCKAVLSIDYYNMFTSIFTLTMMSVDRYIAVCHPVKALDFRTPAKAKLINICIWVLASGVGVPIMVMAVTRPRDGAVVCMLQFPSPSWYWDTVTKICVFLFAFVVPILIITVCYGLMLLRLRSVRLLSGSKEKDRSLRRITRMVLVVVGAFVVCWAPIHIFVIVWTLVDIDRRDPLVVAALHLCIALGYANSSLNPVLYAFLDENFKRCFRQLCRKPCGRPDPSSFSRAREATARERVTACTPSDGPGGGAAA
T8 sequence (P25103 whole entry): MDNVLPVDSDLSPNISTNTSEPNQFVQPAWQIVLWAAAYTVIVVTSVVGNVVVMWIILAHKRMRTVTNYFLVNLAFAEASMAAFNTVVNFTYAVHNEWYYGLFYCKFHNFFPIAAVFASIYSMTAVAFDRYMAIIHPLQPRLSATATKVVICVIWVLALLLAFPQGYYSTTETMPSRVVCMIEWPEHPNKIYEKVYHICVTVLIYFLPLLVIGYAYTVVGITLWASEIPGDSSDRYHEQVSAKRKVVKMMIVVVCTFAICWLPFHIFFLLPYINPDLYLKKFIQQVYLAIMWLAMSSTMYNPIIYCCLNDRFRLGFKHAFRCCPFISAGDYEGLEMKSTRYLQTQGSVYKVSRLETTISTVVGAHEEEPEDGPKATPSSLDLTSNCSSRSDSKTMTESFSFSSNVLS
T2 sequence (P41145 whole entry): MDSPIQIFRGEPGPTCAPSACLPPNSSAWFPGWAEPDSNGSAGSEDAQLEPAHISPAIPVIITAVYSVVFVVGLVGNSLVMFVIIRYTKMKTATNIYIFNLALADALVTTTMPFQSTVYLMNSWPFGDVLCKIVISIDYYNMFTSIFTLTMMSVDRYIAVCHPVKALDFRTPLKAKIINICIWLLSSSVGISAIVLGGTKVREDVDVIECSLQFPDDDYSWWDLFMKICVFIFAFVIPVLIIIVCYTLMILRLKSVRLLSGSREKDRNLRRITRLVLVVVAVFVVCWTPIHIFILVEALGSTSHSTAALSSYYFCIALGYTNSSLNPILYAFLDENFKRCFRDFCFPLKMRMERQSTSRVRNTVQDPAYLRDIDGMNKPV
T10 sequence (P41146 whole entry): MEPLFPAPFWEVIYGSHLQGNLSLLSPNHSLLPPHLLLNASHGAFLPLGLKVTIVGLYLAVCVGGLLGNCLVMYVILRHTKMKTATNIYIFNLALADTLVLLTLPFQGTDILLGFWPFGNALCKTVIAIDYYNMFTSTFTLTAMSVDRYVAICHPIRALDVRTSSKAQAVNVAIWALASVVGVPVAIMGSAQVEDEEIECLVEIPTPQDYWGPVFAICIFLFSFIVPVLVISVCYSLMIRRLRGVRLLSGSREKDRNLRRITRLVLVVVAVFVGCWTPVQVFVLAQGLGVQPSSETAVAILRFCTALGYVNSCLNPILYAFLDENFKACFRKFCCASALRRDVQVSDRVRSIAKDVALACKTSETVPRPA
T7 sequence (P35372 whole entry): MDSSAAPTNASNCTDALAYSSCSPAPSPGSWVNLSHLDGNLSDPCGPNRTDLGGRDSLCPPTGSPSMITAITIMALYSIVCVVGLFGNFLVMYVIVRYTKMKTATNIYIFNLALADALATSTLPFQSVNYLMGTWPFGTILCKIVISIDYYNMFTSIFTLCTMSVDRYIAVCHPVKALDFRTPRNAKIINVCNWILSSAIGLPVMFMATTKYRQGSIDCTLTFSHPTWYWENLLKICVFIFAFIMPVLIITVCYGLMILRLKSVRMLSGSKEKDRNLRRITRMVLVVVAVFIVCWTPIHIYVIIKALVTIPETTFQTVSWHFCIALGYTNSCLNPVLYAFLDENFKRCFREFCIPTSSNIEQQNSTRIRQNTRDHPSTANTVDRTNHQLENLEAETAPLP
T4 sequence (P32245 whole entry): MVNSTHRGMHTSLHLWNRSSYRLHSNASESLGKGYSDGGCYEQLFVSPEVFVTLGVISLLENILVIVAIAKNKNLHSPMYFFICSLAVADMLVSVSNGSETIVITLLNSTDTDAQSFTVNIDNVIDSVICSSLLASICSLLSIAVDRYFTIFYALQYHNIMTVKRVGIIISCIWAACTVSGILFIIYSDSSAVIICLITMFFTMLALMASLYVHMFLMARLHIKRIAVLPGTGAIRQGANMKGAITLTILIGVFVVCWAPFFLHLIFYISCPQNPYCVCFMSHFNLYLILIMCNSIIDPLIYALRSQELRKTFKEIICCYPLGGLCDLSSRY
T6 sequence (Q99705 whole entry): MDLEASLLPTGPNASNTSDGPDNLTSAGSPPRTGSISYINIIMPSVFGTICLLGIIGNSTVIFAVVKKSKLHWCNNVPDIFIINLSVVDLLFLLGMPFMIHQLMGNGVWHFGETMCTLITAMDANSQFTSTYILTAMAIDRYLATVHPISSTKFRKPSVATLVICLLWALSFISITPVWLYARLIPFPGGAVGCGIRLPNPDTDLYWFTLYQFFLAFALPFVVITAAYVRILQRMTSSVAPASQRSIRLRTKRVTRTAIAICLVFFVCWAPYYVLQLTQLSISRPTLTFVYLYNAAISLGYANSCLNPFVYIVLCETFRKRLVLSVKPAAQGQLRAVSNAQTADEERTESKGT
T3 sequence (P41968 whole entry): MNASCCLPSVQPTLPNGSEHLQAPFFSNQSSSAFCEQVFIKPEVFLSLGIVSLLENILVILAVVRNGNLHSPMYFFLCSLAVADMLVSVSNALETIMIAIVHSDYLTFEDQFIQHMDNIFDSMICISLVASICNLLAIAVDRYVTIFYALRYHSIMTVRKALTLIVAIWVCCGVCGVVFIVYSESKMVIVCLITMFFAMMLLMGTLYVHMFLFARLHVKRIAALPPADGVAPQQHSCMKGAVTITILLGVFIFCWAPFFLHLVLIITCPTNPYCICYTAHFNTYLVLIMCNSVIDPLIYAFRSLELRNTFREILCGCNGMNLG

Compound | A1 radioligand binding, percentage inhibition (Human δ-opioid (DOP)) | A2 radioligand binding, percentage inhibition (Human κ-Opioid (KOP)) | A3 radioligand binding, percentage inhibition (Human Melanocortin (MC3)) | A4 radioligand binding, percentage inhibition (Human Melanocortin (MC4)) | A5 radioligand binding, percentage inhibition (Human melanocortin (MC5)) | A6 radioligand binding, percentage inhibition ([1]; [125I]-S36057) | A7 radioligand binding, percentage inhibition (Human μ-opioid (MOP)) | A8 radioligand binding, percentage inhibition (Human neurokinin (NK1)) | A9 radioligand binding, percentage inhibition [2] | A10 radioligand binding, percentage inhibition (Human opioid (ORL1)) | A11 radioligand binding, percentage inhibition (Mouse urotensin (mUR2)) | A1: inhibition of radioligand binding (Human δ-opioid (DOP)) | A2: inhibition of radioligand binding (Human κ-Opioid (KOP)) | A3: inhibition of radioligand binding (Human Melanocortin (MC3)) | A4: inhibition of radioligand binding (Human Melanocortin (MC4)) | A5: inhibition of radioligand binding (Human melanocortin (MC5)) | A6: inhibition of radioligand binding [1] | A7: inhibition of radioligand binding (Human μ-opioid (MOP)) | A8: inhibition of radioligand binding (Human neurokinin (NK1)) | A9: inhibition of radioligand binding [2] | further results
COC[C@H]1OC(OCc2ccc(Cl)cc2)[C@H](NC(=O)CCCNC(=N)N)[C@@H](OCc2cccc(O)c2)[C@@H]1O (stereo partly drawn) [compound 139] | − (“−” indicates less than 50% inhibition at 10 μM) | − (“−” indicates less than 50% inhibition at 10 μM) | − (“−” indicates less than 50% inhibition at 10 μM) | − (“−” indicates less than 50% inhibition at 10 μM) | − (“−” indicates less than 50% inhibition at 10 μM) | + (“+” indicates greater than 50% inhibition at 10 μM) | + (“+” indicates greater than 50% inhibition at 10 μM) | − (“−” indicates less than 50% inhibition at 10 μM) | − (“−” indicates less than 50% inhibition at 10 μM) | − (“−” indicates less than 50% inhibition at 10 μM) | − (“−” indicates less than 50% inhibition at 10 μM) |  |  |  |  |  |  |  |  |  | 
CO[C@H]1[C@H](O)[C@@H](COCc2ccc3ccccc3c2)OC(OCc2ccc(Cl)cc2)[C@@H]1NC(=O)CCNC(=N)N (stereo partly drawn) [compound 98] | − (“−” indicates less than 50% inhibition at 10 μM) | − (“−” indicates less than 50% inhibition at 10 μM) | − (“−” indicates less than 50% inhibition at 10 μM) | + (“+” indicates greater than 50% inhibition at 10 μM) | + (“+” indicates greater than 50% inhibition at 10 μM) | + (“+” indicates greater than 50% inhibition at 10 μM) | − (“−” indicates less than 50% inhibition at 10 μM) | + (“+” indicates greater than 50% inhibition at 10 μM) | − (“−” indicates less than 50% inhibition at 10 μM) | − (“−” indicates less than 50% inhibition at 10 μM) | − (“−” indicates less than 50% inhibition at 10 μM) |  |  |  |  |  |  |  |  |  | 
CSC1O[C@H](COCc2ccc(Cl)cc2)[C@@H](O)[C@@H](OCc2ccc(Cl)cc2)[C@H]1NC(=O)CCCN (stereo partly drawn) [compound 273] |  |  |  |  |  |  |  |  |  |  |  | − (“−” indicates less than 50% inhibition at 10 μM) | − (“−” indicates less than 50% inhibition at 10 μM) | − (“−” indicates less than 50% inhibition at 10 μM) | − (“−” indicates less than 50% inhibition at 10 μM) | − (“−” indicates less than 50% inhibition at 10 μM) | − (“−” indicates less than 50% inhibition at 10 μM) | − (“−” indicates less than 50% inhibition at 10 μM) | + (“+” indicates greater than 50% inhibition at 10 μM) | − (“−” indicates less than 50% inhibition at 10 μM) | A10: inhibition of radioligand binding (Human opioid (ORL1)): − (“−” indicates less than 50% inhibition at 10 μM); A11: inhibition of radioligand binding (Mouse urotensin (mUR2)): − (“−” indicates less than 50% inhibition at 10 μM)
COCC1OC(OCc2ccc3ccccc3c2)C(NC(=O)CN)C(OCc2ccc(-c3ccccc3)cc2)C1O (stereo not drawn) [compound 241] |  |  |  |  |  |  |  |  |  |  |  | − (“−” indicates less than 50% inhibition at 10 μM) | − (“−” indicates less than 50% inhibition at 10 μM) | − (“−” indicates less than 50% inhibition at 10 μM) | + (“+” indicates greater than 50% inhibition at 10 μM) | + (“+” indicates greater than 50% inhibition at 10 μM) | − (“−” indicates less than 50% inhibition at 10 μM) | − (“−” indicates less than 50% inhibition at 10 μM) | + (“+” indicates greater than 50% inhibition at 10 μM) | − (“−” indicates less than 50% inhibition at 10 μM) | A10: inhibition of radioligand binding (Human opioid (ORL1)): − (“−” indicates less than 50% inhibition at 10 μM); A11: inhibition of radioligand binding (Mouse urotensin (mUR2)): − (“−” indicates less than 50% inhibition at 10 μM)
N=C(N)NCC(=O)NC1C(OCc2ccc(Cl)cc2)OC(COCc2ccc3ccccc3c2)C(O)C1OCc1ccc(Cl)cc1 (single isomer, unassigned) [compound 507] |  |  |  |  |  |  |  |  |  |  |  |  |  |  |  |  |  |  |  |  | A1: inhibition of radioligand binding, human δ-opioid (DOP) (Human δ-opioid (DOP)): − (“−” indicates less than 50% inhibition at 10 μM); A2: inhibition of radioligand binding, human κ-opioid (KOP) (Human κ-Opioid (KOP); 10 µM): − (“−” indicates less than 50% inhibition at 10 μM); A3: inhibition of radioligand binding, human melanocortin (MC3) (Human Melanocortin (MC3); 10 µM): − (“−” indicates less than 50% inhibition at 10 μM); A4: inhibition of radioligand binding, human melanocortin (MC4) (Human Melanocortin (MC4)): + (“+” indicates greater than 50% inhibition at 10 μM); A5: inhibition of radioligand binding, human melanocortin (MC5) (Human melanocortin (MC5)): + (“+” indicates greater than 50% inhibition at 10 μM); A6: inhibition of radioligand binding, human melanin-concentrating hormone (MCH1) ([1]; [125I]-S36057): + (“+” indicates greater than 50% inhibition at 10 μM); A7: inhibition of radioligand binding, human μ-opioid (MOP) (Human μ-opioid (MOP)): − (“−” indicates less than 50% inhibition at 10 μM); A8: inhibition of radioligand binding, human neurokinin (NK1) (Human neurokinin (NK1)): + (“+” indicates greater than 50% inhibition at 10 μM); A9: inhibition of radioligand binding, human neuropeptide Y (NPY-Y1) [2]: − (“−” indicates less than 50% inhibition at 10 μM); A10: inhibition of radioligand binding, human opioid (ORL1) (Human opioid (ORL1)): + (“+” indicates greater than 50% inhibition at 10 μM); A11: inhibition of radioligand binding, mouse urotensin (mUR2) (Mouse urotensin (mUR2)): − (“−” indicates less than 50% inhibition at 10 μM)
CO[C@H]1[C@H](O)[C@@H](COCc2ccc(Cl)cc2)OC(OCc2ccc(Cl)cc2)[C@@H]1NC(=O)CCCNC(=N)N (stereo partly drawn) [compound 108] | − (“−” indicates less than 50% inhibition at 10 μM) | − (“−” indicates less than 50% inhibition at 10 μM) | + (“+” indicates greater than 50% inhibition at 10 μM) | + (“+” indicates greater than 50% inhibition at 10 μM) | + (“+” indicates greater than 50% inhibition at 10 μM) | − (“−” indicates less than 50% inhibition at 10 μM) | − (“−” indicates less than 50% inhibition at 10 μM) | + (“+” indicates greater than 50% inhibition at 10 μM) | − (“−” indicates less than 50% inhibition at 10 μM) | − (“−” indicates less than 50% inhibition at 10 μM) | − (“−” indicates less than 50% inhibition at 10 μM) |  |  |  |  |  |  |  |  |  | 
